# In US7238213B2, “Cell-based assays employing voltage and calcium dyes” (priority 2001, dated 2007):
# Tests used:
# DRD2 receptor = DRD2 receptor (Homo sapiens, UniProt P14416)
# From the text: This kind of assay is figuratively dubbed as “upside down assay”, as the activation of receptor brings down the fluorescence signal from a highly activated level.
# [1] = target: Gi-coupled D2 dopamine receptor (Homo sapiens, UniProt P14416); details: 300 nM, FIG. 29
# Sequence of Gi-coupled D2 dopamine receptor (P14416 whole entry): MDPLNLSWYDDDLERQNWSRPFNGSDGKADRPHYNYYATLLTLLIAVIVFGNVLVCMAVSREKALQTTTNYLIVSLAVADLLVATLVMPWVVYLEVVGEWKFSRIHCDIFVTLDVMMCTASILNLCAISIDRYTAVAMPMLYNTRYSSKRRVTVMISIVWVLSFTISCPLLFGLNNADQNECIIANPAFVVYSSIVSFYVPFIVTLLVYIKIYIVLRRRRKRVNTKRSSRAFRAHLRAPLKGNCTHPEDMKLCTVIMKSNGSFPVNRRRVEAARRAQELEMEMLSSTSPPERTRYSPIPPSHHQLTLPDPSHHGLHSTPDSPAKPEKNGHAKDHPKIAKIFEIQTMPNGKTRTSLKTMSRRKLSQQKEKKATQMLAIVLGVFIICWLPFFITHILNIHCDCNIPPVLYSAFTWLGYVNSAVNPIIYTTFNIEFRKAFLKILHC
# Sequence of DRD2 receptor (P14416 whole entry): as above
smiles,measurement,setting,value
NCCc1ccc(O)c(O)c1 [dopamine],time to maximal response,"DRD2 receptor; 1 μM dopamine, 96-well, FLEXstation",about 400 seconds
same,time for forskolin-induced fluorescence signal to nearly return to the pre-forskolin level,"DRD2 receptor; no PDE inhibitor, FIG. 28A",≤ 7 min
same,calcium response,[1],does not affect calcium levels
